Test results published in patent publication US20050234073A1, “Methods of inhibiting inflammation” (priority 2003, published 2005).

Experiments:
[1] = test system: BMDCs; assay: Bone marrow derived dendritic cell presentation to 24.8 and DN32 NKT cells (IL-2 ELISA); assay type: cell-based, mouse; settings: BMDCs cultured with inhibitor from day 6 to day 10
Protocol: FIG. 17D is a line graph showing IL-2 production in bone marrow derived dendritic cells incubated for 4 days with BMS212122 (◯) or vehicle (●) were treated with α-galcer for 3 hours, washed and co cultured with DN32. IL-2 concentrations were measured by ELISA of 24 hour culture supernatants. *, p<0.01.
APCs were incubated with 100 ng/mL α-galcer (kindly provided by Dr. H. Ploegh) for 3 hours, washed three times in PBS and aliquoted into a 96 well plate at 10^6 cells/mL. DN32 cells were added at 1:1 E:T ratio unless otherwise indicated. CD4^+ cells were isolated from spleens of OT-II transgenic mice using positive selection on CD4 magnetic beads (Miltenyi Biotec) and incubated with APCs and 100 μg/mL ovalbumin. […] Mouse IL-2 production was assessed by ELISA (OptEIA, BD PharMingen) of 24 or 40 hour culture supernatants. […]
Bone marrow was extracted from the femurs of C57BL6 or MTPmx1cre mice, washed once in PBS and resuspended in R10 supplemented with culture supernatant from murine GM-CSF transfected cells for a final concentration of 200 U/mL GM-CSF. […] Differentiated cells were harvested by gentle pipetting, washed in PBS, and analyzed by flow cytometry for surface expression of CD11c and I-A^b. […] After 5 days cells were dislodged by gentle pipetting, analyzed by flow cytometry and assayed for antigen presentation. […]

[2] = test system: C1Rd cells; assay: C1Rd cell presentation of α-galcer to DN32 NKT cells (IL-2 ELISA); assay type: cell-based, human; settings: C1Rd cells cultured 5 days with inhibitor
Protocol: FIG. 20D is a bar chart showing IL-2 production in C1Rd cells cultured with BMS212122 or vehicle for 5 days that were incubated with α-galcer for 3 hours IL-2 concentrations were measured by ELISA of 24 hour culture supernatants. *, p<0.02.
APCs were incubated with 100 ng/mL α-galcer (kindly provided by Dr. H. Ploegh) for 3 hours, washed three times in PBS and aliquoted into a 96 well plate at 10^6 cells/mL. DN32 cells were added at 1:1 E:T ratio unless otherwise indicated. CD4^+ cells were isolated from spleens of OT-II transgenic mice using positive selection on CD4 magnetic beads (Miltenyi Biotec) and incubated with APCs and 100 μg/mL ovalbumin. The 24.8 NKT cell line was incubated with APCs in the absence of added antigen at E:T=2:1 unless otherwise indicated. Mouse IL-2 production was assessed by ELISA (OptEIA, BD PharMingen) of 24 or 40 hour culture supernatants. APCs were treated with BMS212122 (10 uM dissolved in DMSO; kindly provided by Bristol Myers Squibb, New Jersey) as indicated and washed prior to addition of T or NKT cells. […]
C1Rd is a human B cell line transfected with human CD1d. […] Incubation of C1Rd cells with BMS212122, but not the vehicle, inhibited the presentation of α-galcer as determined by a reduction in IL-2 secretion (FIG. 20D).

[3] = target: MTP (Homo sapiens, UniProt P55157); settings: cited from earlier work
Chain of MTP (P55157 19-894, species assumed): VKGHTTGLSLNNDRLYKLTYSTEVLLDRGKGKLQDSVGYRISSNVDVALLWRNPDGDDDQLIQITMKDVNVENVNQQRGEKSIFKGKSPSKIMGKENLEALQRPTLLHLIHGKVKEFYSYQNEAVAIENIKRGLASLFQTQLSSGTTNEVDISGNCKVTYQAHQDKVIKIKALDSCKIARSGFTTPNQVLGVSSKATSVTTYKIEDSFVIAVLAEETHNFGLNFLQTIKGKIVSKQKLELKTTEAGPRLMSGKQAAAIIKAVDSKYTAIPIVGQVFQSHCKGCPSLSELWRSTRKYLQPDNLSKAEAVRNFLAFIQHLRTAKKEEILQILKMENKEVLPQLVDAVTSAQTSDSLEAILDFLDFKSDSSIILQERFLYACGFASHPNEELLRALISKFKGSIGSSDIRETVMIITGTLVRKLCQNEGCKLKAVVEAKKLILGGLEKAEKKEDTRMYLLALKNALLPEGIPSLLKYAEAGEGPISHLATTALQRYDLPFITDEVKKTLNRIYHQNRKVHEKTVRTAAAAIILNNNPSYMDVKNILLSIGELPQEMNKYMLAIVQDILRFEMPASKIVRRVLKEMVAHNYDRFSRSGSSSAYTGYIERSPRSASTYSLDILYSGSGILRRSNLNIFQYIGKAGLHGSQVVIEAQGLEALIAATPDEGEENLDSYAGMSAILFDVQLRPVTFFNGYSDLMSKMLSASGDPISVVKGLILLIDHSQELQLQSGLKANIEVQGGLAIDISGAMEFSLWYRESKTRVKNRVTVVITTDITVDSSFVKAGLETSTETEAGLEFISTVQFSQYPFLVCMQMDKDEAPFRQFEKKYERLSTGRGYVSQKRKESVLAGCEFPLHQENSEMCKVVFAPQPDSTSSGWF
Chain of MTP (P07237 18-508 partner, species assumed): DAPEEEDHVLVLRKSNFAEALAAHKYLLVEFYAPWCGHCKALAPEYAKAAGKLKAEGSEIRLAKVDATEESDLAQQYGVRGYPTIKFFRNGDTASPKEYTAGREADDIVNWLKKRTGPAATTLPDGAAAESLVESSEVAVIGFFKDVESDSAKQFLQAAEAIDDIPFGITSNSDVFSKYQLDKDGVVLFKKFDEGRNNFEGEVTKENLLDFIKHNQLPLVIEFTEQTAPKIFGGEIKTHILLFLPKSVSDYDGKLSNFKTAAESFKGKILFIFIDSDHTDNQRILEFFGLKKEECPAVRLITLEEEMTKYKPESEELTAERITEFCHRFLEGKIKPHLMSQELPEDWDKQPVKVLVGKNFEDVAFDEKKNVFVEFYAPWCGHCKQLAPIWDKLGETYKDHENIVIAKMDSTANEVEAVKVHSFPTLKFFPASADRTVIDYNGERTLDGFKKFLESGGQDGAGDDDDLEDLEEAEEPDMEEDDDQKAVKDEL

[4] = test system: HepG2 cells; settings: cited from earlier work

Cc1ccc2c(nc(C)n2CCCCC2(C(=O)NCC(F)(F)F)c3ccccc3-c3ccccc32)c1NC(=O)c1ccccc1-c1ccc(C(F)(F)F)cc1 [BMS212122, 9-[4-[2,5-Dimethyl-4-[[[4′-(trifluoromethyl)[1,1′-biphenyl]-2-yl]carbonyl]amino]-1H-benzimidazol-1-yl]butyl]-N-(2,2,2-trifluoroethyl)-9H-fluorene-9-carboxamide]
presentation of α-galcer to DN32 cells [1]: significant effect | presentation of α-galcer (IL-2 secretion) [2]: inhibited | transfer of triglycerides, phospholipids, and cholesterol esters in vitro [3]: blocks transfer | secretion of apoB from HepG2 cells [4]: prevents secretion
